Key:
[1] = (§1) The drug is tested on Z-029 corresponding to rat gut metagenome with ENA study accession number: PRJEB37062 and ENA sample accession number: ERS12561828 for biotransformation under anaerobic condition. The drug concentrations were measured over 9 timepoints collected between 0 and 24 hours of incubation by liquid-chromatography-coupled mass spectrometry (LC–MS); conditions: 2 µM
[2] = as §1, with “on Z-028” for “on Z-029”, “to mouse” for “to rat”, “number: ERS12561827” for “number: ERS12561828”; conditions: 2 µM
[3] = as §1, with “on Z-018” for “on Z-029”, “to pig” for “to rat”, “number: ERS12561817” for “number: ERS12561828”; conditions: 2 µM
[4] = as §1, with “on Z-013” for “on Z-029”, “to rabbit” for “to rat”, “number: ERS12561813” for “number: ERS12561828”; conditions: 2 µM
[5] = as §1, with “Z-012” for “Z-029”, “to” for “to rat gut”, “ERS12561812” for “ERS12561828”; conditions: 2 µM
[6] = as §1, with “Z-010” for “Z-029”, “to” for “to rat gut”, “ERS12561810” for “ERS12561828”; conditions: 2 µM
[7] = as §1, with “on Z-002” for “on Z-029”, “to rabbit” for “to rat”, “number: ERS12561802” for “number: ERS12561828”; conditions: 2 µM
[8] = as §1, with “on WLS-370” for “on Z-029”, “to human” for “to rat”, “number: ERS12561793” for “number: ERS12561828”; conditions: 2 µM
[9] = as §1, with “on WLS-350” for “on Z-029”, “to human” for “to rat”, “number: ERS12561789” for “number: ERS12561828”; conditions: 2 µM
[10] = as §1, with “on WLS-240” for “on Z-029”, “to human” for “to rat”, “number: ERS12561773” for “number: ERS12561828”; conditions: 2 µM
[11] = as §1, with “on WLS-098” for “on Z-029”, “to human” for “to rat”, “number: ERS12561754” for “number: ERS12561828”; conditions: 2 µM
[12] = as §1, with “on WLS-082” for “on Z-029”, “to human” for “to rat”, “number: ERS12561751” for “number: ERS12561828”; conditions: 2 µM
[13] = as §1, with “on WLS-038” for “on Z-029”, “to human” for “to rat”, “number: ERS12561745” for “number: ERS12561828”; conditions: 2 µM
[14] = human gut metagenome, 24 h, 2 µM
[15] = human gut metagenome, 24 h, 2 µM; remark: listed apart in the source
[16] = human gut metagenome, 24 h, 2 µM; remark: listed apart in the source
[17] = human gut metagenome, 24 h, 2 µM; remark: listed apart in the source
[18] = human gut metagenome, 24 h, 2 µM; remark: listed apart in the source
[19] = human gut metagenome, 24 h, 2 µM; remark: listed apart in the source
[20] = human gut metagenome, 24 h, 2 µM; remark: listed apart in the source
Further: call rule not given here.

Row | SMILES | Bacterial Biotransformation [1] | Bacterial Biotransformation [2] | Bacterial Biotransformation [3] | Bacterial Biotransformation [4] | Bacterial Biotransformation [5] | Bacterial Biotransformation [6] | Bacterial Biotransformation [7] | Bacterial Biotransformation [8] | Bacterial Biotransformation [9] | Bacterial Biotransformation [10] | Bacterial Biotransformation [11] | Bacterial Biotransformation [12] | Bacterial Biotransformation [13] | Bacterial Biotransformation [14] | Bacterial Biotransformation [15] | Bacterial Biotransformation [16] | Bacterial Biotransformation [17] | Bacterial Biotransformation [18] | Bacterial Biotransformation [19] | Bacterial Biotransformation [20]
1 | CC(C(=O)O)c1ccc2c(c1)Cc1cccnc1O2 (stereo not given) [PRANOPROFEN] | Compound metabolized | Compound metabolized | Compound metabolized | Compound metabolized | Compound metabolized | Compound metabolized | Compound metabolized | Compound metabolized | Compound metabolized | Compound metabolized | Compound metabolized | Compound metabolized | Compound metabolized | Compound metabolized | Compound metabolized | Compound metabolized | Compound metabolized | Compound metabolized | Compound metabolized | Compound metabolized
2 | CCc1nc(N)nc(N)c1-c1ccc(Cl)cc1 [PYRIMETHAMINE] | Compound NOT metabolized | Compound NOT metabolized | Compound NOT metabolized | Compound NOT metabolized | Compound NOT metabolized | Compound NOT metabolized | Compound metabolized | Compound NOT metabolized | Compound NOT metabolized | Compound metabolized | Compound metabolized | Compound NOT metabolized | Compound NOT metabolized | Compound NOT metabolized | Compound NOT metabolized | Compound NOT metabolized | Compound NOT metabolized | Compound metabolized | Compound NOT metabolized | Compound metabolized
3 | COc1ccccc1OCC(O)CN1CCN(CC(=O)Nc2c(C)cccc2C)CC1 (stereo not given) [RANOLAZINE] | Compound NOT metabolized | Compound NOT metabolized | Compound NOT metabolized | Compound NOT metabolized | Compound NOT metabolized | Compound NOT metabolized | Compound metabolized | Compound NOT metabolized | Compound NOT metabolized | Compound NOT metabolized | Compound NOT metabolized | Compound NOT metabolized | Compound NOT metabolized | Compound NOT metabolized | Compound NOT metabolized | Compound NOT metabolized | Compound NOT metabolized | Compound NOT metabolized | Compound NOT metabolized | Compound NOT metabolized
4 | CCCc1nn(C)c2c(=O)[nH]c(-c3cc(S(=O)(=O)N4CCN(C)CC4)ccc3OCC)nc12.O=C(O)CC(O)(CC(=O)O)C(=O)O [SILDENAFIL CITRATE] | Compound NOT metabolized | Compound NOT metabolized | Compound NOT metabolized | Compound NOT metabolized | Compound NOT metabolized | Compound NOT metabolized | Compound NOT metabolized | Compound NOT metabolized | Compound NOT metabolized | Compound metabolized | Compound NOT metabolized | Compound NOT metabolized | Compound NOT metabolized | Compound NOT metabolized | Compound NOT metabolized | Compound NOT metabolized | Compound NOT metabolized | Compound metabolized | Compound NOT metabolized | Compound NOT metabolized
5 | CN1C(C(=O)Nc2ccccn2)=C(O)c2sccc2S1(=O)=O [TENOXICAM] | Compound NOT metabolized | Compound NOT metabolized | Compound NOT metabolized | Compound NOT metabolized | Compound NOT metabolized | Compound NOT metabolized | Compound NOT metabolized | Compound NOT metabolized | Compound metabolized | Compound NOT metabolized | Compound NOT metabolized | Compound NOT metabolized | Compound NOT metabolized | Compound NOT metabolized | Compound NOT metabolized | Compound NOT metabolized | Compound NOT metabolized | Compound NOT metabolized | Compound NOT metabolized | Compound NOT metabolized
6 | O=c1n(CCCN2CCN(c3cccc(Cl)c3)CC2)nc2ccccn12 [TRAZODONE] | Compound NOT metabolized | Compound NOT metabolized | Compound NOT metabolized | Compound NOT metabolized | Compound NOT metabolized | Compound metabolized | Compound metabolized | Compound metabolized | Compound metabolized | Compound metabolized | Compound metabolized | Compound metabolized | Compound NOT metabolized | Compound NOT metabolized | Compound NOT metabolized | Compound metabolized | Compound NOT metabolized | Compound metabolized | Compound metabolized | Compound metabolized
7 | OC(CCN1CCCCC1)(c1ccccc1)C1CCCCC1 (stereo not given) [TRIHEXYPHENIDYL] | Compound NOT metabolized | Compound NOT metabolized | Compound metabolized | Compound NOT metabolized | Compound NOT metabolized | Compound metabolized | Compound metabolized | Compound metabolized | Compound NOT metabolized | Compound metabolized | Compound metabolized | Compound NOT metabolized | Compound NOT metabolized | Compound metabolized | Compound NOT metabolized | Compound metabolized | Compound metabolized | Compound metabolized | Compound metabolized | Compound metabolized
